Experimental data: PubChem BioAssay AID1918957 (Molecular Pharmacology Branch, DTP, NCI, 2023)

Test system: NCI-H1876 complex spheroid viability
Assay: Anticancer human tumor NCI-H1876 cell line growth inhibition [LSD1];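 note: spheroids exposed to compounds for one week before readout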;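 for viability, T/C: 100% = DMSO vehicle-treated spheroids so lower means fewer viable cells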
Conditions: for IC50: curve of first compound; for viability, T/C: stronger effect = lower value
Procedure, shortened: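 Complex spheroids of tumor cells with HUVEC and human MSCs, exposed to iadademstat combined with other agents. Each agent tested in half-log steps from near clinical Cmax (else 10 microM top), DMSO ≤0.25%.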

Work on `O=C(C=Cn1cnc(-c2cc(C(F)(F)F)cc(C(F)(F)F)c2)n1)NNc1cnccn1` + NC1CCC(NC2CC2c2ccccc2)CC1 yielded an IC50 (second compound 0.1 µM) of 91.4 nM, an IC50 (second compound 0.316 µM) of 81.9 nM and an IC50 (second compound 1 µM) of 83.5 nM. The IC50 (second compound 3.16 µM) was 75.1 nM, the IC50 (second compound 10 µM) was 65.2 nM and the viability, T/C (second compound 0.1 µM, first compound 0.00316 µM) was 98.9%. For the same molecule, the viability, T/C (second compound 0.1 µM, first compound 0.01 µM) was 91.6%, the viability, T/C (second compound 0.1 µM, first compound 0.0316 µM) was 90.2% and the viability, T/C (second compound 0.1 µM, first compound 0.1 µM) was 46.7%. The viability, T/C (second compound 0.1 µM, first compound 0.316 µM) was 23.5%, the viability, T/C (second compound 0.1 µM, first compound 1 µM) was 23.2% and the viability, T/C (second compound 0.316 µM, first compound 0.00316 µM) was 104%. For the same molecule, the viability, T/C (second compound 0.316 µM, first compound 0.01 µM) was 96.6%, the viability, T/C (second compound 0.316 µM, first compound 0.0316 µM) was 87.2% and the viability, T/C (second compound 0.316 µM, first compound 0.1 µM) was 42.1%. For the same molecule, the viability, T/C (second compound 0.316 µM, first compound 0.316 µM) was 22.4%, the viability, T/C (second compound 0.316 µM, first compound 1 µM) was 20.3% and the viability, T/C (second compound 1 µM, first compound 0.00316 µM) was 94.4%. The viability, T/C (second compound 1 µM, first compound 0.01 µM) was 96%, the viability, T/C (second compound 1 µM, first compound 0.0316 µM) was 86.9% and the viability, T/C (second compound 1 µM, first compound 0.1 µM) was 43.1%. The viability, T/C (second compound 1 µM, first compound 0.316 µM) was 22.9%, the viability, T/C (second compound 1 µM, first compound 1 µM) was 20.6% and the viability, T/C (second compound 3.16 µM, first compound 0.00316 µM) was 93.8%. The viability, T/C (second compound 3.16 µM, first compound 0.01 µM) was 90.9%, the viability, T/C (second compound 3.16 µM, first compound 0.0316 µM) was 85.8% and the viability, T/C (second compound 3.16 µM, first compound 0.1 µM) was 38.1%. For the same molecule, the viability, T/C (second compound 3.16 µM, first compound 0.316 µM) was 23.2%, the viability, T/C (second compound 3.16 µM, first compound 1 µM) was 20.6% and the viability, T/C (second compound 10 µM, first compound 0.00316 µM) was 94.4%. For the same molecule, the viability, T/C (second compound 10 µM, first compound 0.01 µM) was 89.1%, the viability, T/C (second compound 10 µM, first compound 0.0316 µM) was 75.7% and the viability, T/C (second compound 10 µM, first compound 0.1 µM) was 35.1%. It also gave a viability, T/C (second compound 10 µM, first compound 0.316 µM) of 19.3% and a viability, T/C (second compound 10 µM, first compound 1 µM) of 19.8%.
Molecule `COc1cc(C2c3cc4c(cc3C(OC3OC5COC(C)OC5C(O)C3O)C3COC(=O)C23)OCO4)cc(OC)c1O` (stereo not given) + NC1CCC(NC2CC2c2ccccc2)CC1 has an IC50 (second compound 0.1 µM) of 61.4 nM, an IC50 (second compound 0.316 µM) of 49.2 nM and an IC50 (second compound 1 µM) of 48.1 nM. The IC50 (second compound 3.16 µM) was 50.9 nM, the IC50 (second compound 10 µM) was 43.9 nM and the viability, T/C (second compound 0.1 µM, first compound 0.00949 µM) was 91.7%. It also gave a viability, T/C (second compound 0.1 µM, first compound 0.03 µM) of 79.6%, a viability, T/C (second compound 0.1 µM, first compound 0.0949 µM) of 31.1% and a viability, T/C (second compound 0.1 µM, first compound 0.3 µM) of 23.5%. The viability, T/C (second compound 0.1 µM, first compound 0.949 µM) was 12.2%, the viability, T/C (second compound 0.1 µM, first compound 3 µM) was 11.8% and the viability, T/C (second compound 0.316 µM, first compound 0.00949 µM) was 89%. For the same molecule, the viability, T/C (second compound 0.316 µM, first compound 0.03 µM) was 68.6%, the viability, T/C (second compound 0.316 µM, first compound 0.0949 µM) was 24.9% and the viability, T/C (second compound 0.316 µM, first compound 0.3 µM) was 22.3%. For the same molecule, the viability, T/C (second compound 0.316 µM, first compound 0.949 µM) was 19.2%, the viability, T/C (second compound 0.316 µM, first compound 3 µM) was 10.7% and the viability, T/C (second compound 1 µM, first compound 0.00949 µM) was 91.7%. For the same molecule, the viability, T/C (second compound 1 µM, first compound 0.03 µM) was 66.4%, the viability, T/C (second compound 1 µM, first compound 0.0949 µM) was 26% and the viability, T/C (second compound 1 µM, first compound 0.3 µM) was 22%. It also gave a viability, T/C (second compound 1 µM, first compound 0.949 µM) of 14.4%, a viability, T/C (second compound 1 µM, first compound 3 µM) of 18.9% and a viability, T/C (second compound 3.16 µM, first compound 0.00949 µM) of 94.5%. It also gave a viability, T/C (second compound 3.16 µM, first compound 0.03 µM) of 64.8%, a viability, T/C (second compound 3.16 µM, first compound 0.0949 µM) of 29.7% and a viability, T/C (second compound 3.16 µM, first compound 0.3 µM) of 29.5%. It also gave a viability, T/C (second compound 3.16 µM, first compound 0.949 µM) of 18.2%, a viability, T/C (second compound 3.16 µM, first compound 3 µM) of 13.7% and a viability, T/C (second compound 10 µM, first compound 0.00949 µM) of 82.7%. For the same molecule, the viability, T/C (second compound 10 µM, first compound 0.03 µM) was 62.5%, the viability, T/C (second compound 10 µM, first compound 0.0949 µM) was 24.3% and the viability, T/C (second compound 10 µM, first compound 0.3 µM) was 23.4%. For the same molecule, the viability, T/C (second compound 10 µM, first compound 0.949 µM) was 18.1% and the viability, T/C (second compound 10 µM, first compound 3 µM) was 14.2%.
